# Experimental data as given in US10750743B2, “Pyridazinone herbicides” (E.I. DU PONT DE NEMOURS AND COMPANY, priority 2015, dated 2020).
# Assays:
# Format in all cases: in vivo
# Foxtail, Green [1] = test: Test A preemergence, directed soil spray, visual injury rating; conditions: 0 is no effect, 100 is complete control
# [2] = tested on: barnyardgrass (Echinochloa crus-galli); test: as above; conditions: 0 is no effect, 100 is complete control
# Method in brief: (§1)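 Seeds sown in a loam soil–sand blend received a directed preemergence soil spray of test chemical in a non-phytotoxic solvent mixture with surfactant. Postemergence plants were sprayed at 2 to 10 cm, one- to two-leaf stage. After approximately 10 d in greenhouse, injury was visually rated 0 (no effect) to 100 (complete control) against untreated controls.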
# kochia (Kochia scoparia) [3] = test: as above; conditions: 0 is no effect, 100 is complete control
# Method in brief: as §1
# [4] = tested on: pigweed (Amaranthus retroflexus); test: as above; conditions: 0 is no effect, 100 is complete control
# Method in brief: as §1
# [5] = tested on: ragweed (common ragweed, Ambrosia elatior); test: as above; conditions: 0 is no effect, 100 is complete control
# Method in brief: as §1
# [6] = tested on: ryegrass, It. (Italian ryegrass, Lolium multiflorum); test: as above; conditions: 0 is no effect, 100 is complete control
# Method in brief: as §1
# [7] = tested on: barnyardgrass (Echinochloa crus-galli); test: Test B flooded paddy test, visual rating; conditions: Flood, 250 g ai/ha, applied to paddy water, rated after 13 to 15 d
# Method in brief: (§2)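 Plants at the 2-leaf stage were flooded to 3 cm above soil, and test compounds were applied directly into the paddy water, which was held at that depth throughout. After 13 to 15 d in a greenhouse, injury was rated visually against untreated controls on a 0–100 scale (0 no effect, 100 complete control).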
# [8] = tested on: ducksalad (Heteranthera limosa); test: Test B flooded paddy test, visual rating; conditions: Flood, 250 g ai/ha, applied to paddy water, rated after 13 to 15 d
# Method in brief: as §2
# rice (Oryza sativa) = test: Test B flooded paddy test, visual rating; conditions: Flood, 250 g ai/ha, applied to paddy water, rated after 13 to 15 d
# Method in brief: as §2
# [9] = tested on: sedge, umbrella (small-flower umbrella sedge, Cyperus difformis); test: Test B flooded paddy test, visual rating; conditions: Flood, 250 g ai/ha, applied to paddy water, rated after 13 to 15 d
# Method in brief: as §2
# Foxtail, Green [10] = test: Test A postemergence application, visual injury rating; conditions: for Plant response rating (0 to 100 scale), Foxtail, Green: 31 g ai/ha, 0 is no effect, 100 is complete control; for Foxtail, Green plant response rating: 125 g ai/ha, 0 to 100 scale, 0 no effect, 100 complete control
# Method in brief: as §1
# [11] = tested on: barnyardgrass (Echinochloa crus-galli); test: as above; conditions: 0 to 100 scale, 0 no effect, 100 complete control
# Method in brief: as §1
# [12] = tested on: blackgrass (Alopecurus myosuroides); test: as above; conditions: 0 to 100 scale, 0 no effect, 100 complete control
# Method in brief: as §1
# corn (Zea mays) = test: as above; conditions: for Plant response rating (0 to 100 scale), Corn: 31 g ai/ha, 0 is no effect, 100 is complete control; for Corn plant response rating: 125 g ai/ha, 0 to 100 scale, 0 no effect, 100 complete control
# Method in brief: as §1
# [13] = tested on: galium (catchweed bedstraw, Galium aparine); test: as above; conditions: for Plant response rating (0 to 100 scale), Galium: 31 g ai/ha, 0 is no effect, 100 is complete control; for Galium plant response rating: 125 g ai/ha, 0 to 100 scale, 0 no effect, 100 complete control
# Method in brief: as §1
# kochia (Kochia scoparia) [14] = test: as above; conditions: for Plant response rating (0 to 100 scale), Kochia: 31 g ai/ha, 0 is no effect, 100 is complete control; for Kochia plant response rating: 125 g ai/ha, 0 to 100 scale, 0 no effect, 100 complete control
# Method in brief: as §1
# [15] = tested on: pigweed (Amaranthus retroflexus); test: as above; conditions: for Plant response rating (0 to 100 scale), Pigweed: 31 g ai/ha, 0 is no effect, 100 is complete control; for Pigweed plant response rating: 125 g ai/ha, 0 to 100 scale, 0 no effect, 100 complete control
# Method in brief: as §1
# [16] = tested on: ragweed (common ragweed, Ambrosia elatior); test: as above; conditions: for Plant response rating (0 to 100 scale), Ragweed: 31 g ai/ha, 0 is no effect, 100 is complete control; for Ragweed plant response rating: 125 g ai/ha, 0 to 100 scale, 0 no effect, 100 complete control
# Method in brief: as §1
# [17] = tested on: ryegrass, It. (Italian ryegrass, Lolium multiflorum); test: as above; conditions: for Plant response rating (0 to 100 scale), Ryegrass, It.: 31 g ai/ha, 0 is no effect, 100 is complete control; for Ryegrass, It. plant response rating: 125 g ai/ha, 0 to 100 scale, 0 no effect, 100 complete control
# Method in brief: as §1
# [18] = tested on: wheat (Triticum aestivum); test: as above; conditions: for Plant response rating (0 to 100 scale), Wheat: 31 g ai/ha, 0 is no effect, 100 is complete control; for Wheat plant response rating: 125 g ai/ha, 0 to 100 scale, 0 no effect, 100 complete control
# Method in brief: as §1
Structure (SMILES),"Plant response rating (0 to 100 scale), Foxtail, Green (Foxtail, Green [1]; 31 g ai/ha)","Plant response rating (0 to 100 scale), Foxtail, Green (Foxtail, Green [1]; 125 g ai/ha)","Plant response rating (0 to 100 scale), Barnyardgrass ([2]; 31 g ai/ha)","Plant response rating (0 to 100 scale), Barnyardgrass ([2]; 125 g ai/ha)","Plant response rating (0 to 100 scale), Kochia (kochia (Kochia scoparia) [3]; 31 g ai/ha)","Plant response rating (0 to 100 scale), Kochia (kochia (Kochia scoparia) [3]; 125 g ai/ha)","Plant response rating (0 to 100 scale), Pigweed ([4]; 31 g ai/ha)","Plant response rating (0 to 100 scale), Pigweed ([4]; 125 g ai/ha)","Plant response rating (0 to 100 scale), Ragweed ([5]; 31 g ai/ha)","Plant response rating (0 to 100 scale), Ragweed ([5]; 125 g ai/ha)","Plant response rating (0 to 100 scale), Ryegrass, It. ([6]; 31 g ai/ha)","Plant response rating (0 to 100 scale), Ryegrass, It. ([6]; 125 g ai/ha)","Barnyardgrass plant response rating (0 to 100 scale, 0 is no effect, 100 is complete control) [7]","Ducksalad plant response rating (0 to 100 scale, 0 is no effect, 100 is complete control) [8]","Rice plant response rating (0 to 100 scale, 0 is no effect, 100 is complete control) (rice (Oryza sativa))","Sedge, Umbrella plant response rating (0 to 100 scale, 0 is no effect, 100 is complete control) [9]","Plant response rating (0 to 100 scale), Foxtail, Green (Foxtail, Green [10])","Foxtail, Green plant response rating (Foxtail, Green [10])",Barnyardgrass plant response rating ([11]; 31 g ai/ha),Barnyardgrass plant response rating ([11]; 125 g ai/ha),other results
Cn1nc(Cl)c(O)c(-c2cccc3c2nnn3C)c1=O [Compound 61],0,0,0,0,0,0,0,0,0,0,0,0,0,0,0,0,0,0,0,0,"Blackgrass plant response rating ([12]; 31 g ai/ha): 0; Blackgrass plant response rating ([12]; 125 g ai/ha): 0; Plant response rating (0 to 100 scale), Corn (corn (Zea mays)): 0; Corn plant response rating (corn (Zea mays)): 0; Plant response rating (0 to 100 scale), Galium [13]: 0; Galium plant response rating [13]: 0; Plant response rating (0 to 100 scale), Kochia (kochia (Kochia scoparia) [14]): 0; Kochia plant response rating (kochia (Kochia scoparia) [14]): 0; Plant response rating (0 to 100 scale), Pigweed [15]: 0; Pigweed plant response rating [15]: 0; Plant response rating (0 to 100 scale), Ragweed [16]: 0; Ragweed plant response rating [16]: 0; Plant response rating (0 to 100 scale), Ryegrass, It. [17]: 0; Ryegrass, It. plant response rating [17]: 0; Plant response rating (0 to 100 scale), Wheat [18]: 0; Wheat plant response rating [18]: 0"
CCC(=O)Oc1c(C)nn(C)c(=O)c1-c1c(Br)ccc2c1cnn2C [Compound 64],0,0,0,0,0,0,0,0,0,0,0,0,0,0,0,0,0,0,0,0,"Blackgrass plant response rating ([12]; 31 g ai/ha): 60; Blackgrass plant response rating ([12]; 125 g ai/ha): 0; Plant response rating (0 to 100 scale), Corn (corn (Zea mays)): 0; Corn plant response rating (corn (Zea mays)): 0; Plant response rating (0 to 100 scale), Galium [13]: 30; Galium plant response rating [13]: 50; Plant response rating (0 to 100 scale), Kochia (kochia (Kochia scoparia) [14]): 0; Kochia plant response rating (kochia (Kochia scoparia) [14]): 0; Plant response rating (0 to 100 scale), Pigweed [15]: 0; Pigweed plant response rating [15]: 0; Plant response rating (0 to 100 scale), Ragweed [16]: 0; Ragweed plant response rating [16]: 0; Plant response rating (0 to 100 scale), Ryegrass, It. [17]: 0; Ryegrass, It. plant response rating [17]: 0; Plant response rating (0 to 100 scale), Wheat [18]: 0; Wheat plant response rating [18]: 0"
Cc1nn(C)c(=O)c(-c2c(Br)ccc3c2cnn3C)c1O [Compound 65],0,0,0,0,0,0,0,0,0,0,0,0,0,0,0,0,0,0,0,0,"Blackgrass plant response rating ([12]; 31 g ai/ha): 0; Blackgrass plant response rating ([12]; 125 g ai/ha): 0; Plant response rating (0 to 100 scale), Corn (corn (Zea mays)): 0; Corn plant response rating (corn (Zea mays)): 0; Plant response rating (0 to 100 scale), Galium [13]: 0; Galium plant response rating [13]: 0; Plant response rating (0 to 100 scale), Kochia (kochia (Kochia scoparia) [14]): 0; Kochia plant response rating (kochia (Kochia scoparia) [14]): 0; Plant response rating (0 to 100 scale), Pigweed [15]: 0; Pigweed plant response rating [15]: 0; Plant response rating (0 to 100 scale), Ragweed [16]: 0; Ragweed plant response rating [16]: 0; Plant response rating (0 to 100 scale), Ryegrass, It. [17]: 0; Ryegrass, It. plant response rating [17]: 0; Plant response rating (0 to 100 scale), Wheat [18]: 0; Wheat plant response rating [18]: 0"
